Experimental data from PubChem BioAssay (NCI).
Values joined by “and” are separate entries in the source; they are usually repeats but may differ in a detail not shown here. Identical values can stand only once.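 Dose response: 5 concentrations. Exposure: 48 h. Format: 96-well plates. Endpoint: linear interpolation; highest concentration if not reached. GI50 = concentration required for 50% inhibition of growth. Definition used: TGI = concentration required for complete inhibition of growth.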

What was measured:
Experiment in all cases: NCI anticancer screen, dose series, 48 h
T-47D breast = tested on: T-47D breast
SK-MEL-5 melanoma = tested on: SK-MEL-5 melanoma
HCC-2998 colon = tested on: HCC-2998 colon
LOX IMVI melanoma = tested on: LOX IMVI melanoma
HL-60(TB) leukemia = tested on: HL-60(TB) leukemia
PC-3 prostate = tested on: PC-3 prostate
HS 578T breast = tested on: HS 578T breast
CAKI-1 renal = tested on: CAKI-1 renal

SMILES	GI50 (T-47D breast)	TGI (T-47D breast)	GI50 (SK-MEL-5 melanoma)	TGI (SK-MEL-5 melanoma)	GI50 (HCC-2998 colon)	TGI (HCC-2998 colon)	GI50 (LOX IMVI melanoma)	TGI (LOX IMVI melanoma)	GI50 (HL-60(TB) leukemia)	TGI (HL-60(TB) leukemia)	GI50 (PC-3 prostate)	TGI (PC-3 prostate)	GI50 (HS 578T breast)	TGI (HS 578T breast)	GI50 (CAKI-1 renal)	TGI (CAKI-1 renal)
COc1ccc(C2[C@@H](c3ccccc3)C(=O)N2c2cc(OC)c(OC)c(OC)c2)cc1F (some centres not stated)	> 100 µM	> 100 µM	0.0271 µM	0.075 µM	0.0394 µM	> 100 µM	0.0296 µM	13.8 µM	0.0223 µM	0.0542 µM	0.0403 µM	> 100 µM	0.0434 µM	78.7 µM	0.0332 µM	> 100 µM
O=C(O)c1ccc2c(c1C(=O)O)C(=O)OC2(c1ccc(O)cc1)c1ccc(O)cc1		> 100 µM		> 100 µM				> 100 µM		> 100 µM		> 100 µM		> 100 µM		> 100 µM
CCCOc1cc2ccccc2cc1C(=O)Nc1nc(N)c2c(ccc3nccc32)[nH]1	0.499 µM	3.17 µM	0.0413 µM	1.04 µM	0.22 µM	1.86 µM	0.0511 µM	2.02 µM	0.0307 µM	0.229 µM	0.0492 µM	2.22 µM			0.62 µM	3.31 µM
CCN1C(=O)N(c2ccccc2)C2NC(=S)N(/N=C/C=C/c3ccccc3OC)C21 (configuration not stated)	4.12 µM	> 100 µM	0.099 µM	0.607 µM	0.111 µM	> 100 µM	0.109 µM	> 69.5 µM	0.0756 µM	0.181 µM	0.111 µM	> 89.3 µM	0.0858 µM	> 100 µM	0.0704 µM	> 60.9 µM
Cn1ccc2c3c(Oc4ccc(NC(N)=O)cc4)ccnc3ccc21	> 100 µM	> 100 µM	20.7 µM	> 100 µM	> 100 µM	> 100 µM	> 100 µM	> 100 µM			> 100 µM	> 100 µM	40.1 µM	> 100 µM	> 100 µM	> 100 µM
Nc1c(C(=O)Nc2cccc(C(F)(F)F)c2)sc2nc3c(cc12)CCCCC3	1.55 µM	8.31 µM	1.18 µM	12 µM	31 µM	> 100 µM	3.59 µM	58 µM	15.6 µM	> 100 µM	3.21 µM	34.2 µM	3.8 µM	30.4 µM	2.08 µM	10.1 µM
CCOC(=O)C1=C(C)N(c2ccc(F)cc2F)[C@]2(C#N)C(O)=C(Cl)C(Cl)=C(O)[C@]12C#N	> 100 µM	> 100 µM	> 100 µM	> 100 µM			> 100 µM	> 100 µM	> 100 µM	> 100 µM			> 100 µM	> 100 µM	> 100 µM	> 100 µM
COc1ccc2nc3cc(Cl)ccc3c(NCCNCC(C)O)c2c1 (configuration not stated)	2.16 µM	6.72 µM	1.68 µM	3.06 µM	1.38 µM	2.94 µM	1.15 µM	2.66 µM	1.9 µM	6.05 µM	2.33 µM	5.86 µM	4.47 µM	21.3 µM	1.57 µM	4.54 µM
Nc1n[nH]c2cccc(C#Cc3cccc(C(=O)Nc4ccc(CN5CCOCC5)c(C(F)(F)F)c4)c3)c12	1.18 µM	5.76 µM	1.4 µM	3.26 µM	3 µM	13.9 µM	1.67 µM	4.02 µM	1.17 µM	5 µM	2.16 µM	7.79 µM	2.19 µM	8.23 µM	3.2 µM	11.4 µM
COc1ccc(CCN=C2NC(=O)/C(=C/c3ccc4ncccc4c3)S2)cc1	> 25 µM	> 25 µM	> 25 µM	> 25 µM	> 25 µM	> 25 µM	> 25 µM	> 25 µM			> 25 µM	> 25 µM	> 25 µM	> 25 µM	> 21.2 µM	> 25 µM
O=S(=O)(c1ccccc1)N1CCN(S(=O)(=O)c2ccccc2)c2ccccc21		> 100 µM		> 100 µM		> 100 µM		> 100 µM				> 100 µM		> 100 µM		> 100 µM
CC(C)[C@@H]1C=C2CC[C@H]3[C@](C)(CN)CCC[C@]3(C)[C@H]2CC1	1.99 µM	4.61 µM	13.1 µM	25.8 µM	1.63 µM	3.03 µM	1.52 µM	2.85 µM	1.38 µM	4.39 µM	5.59 µM	19.6 µM	4.69 µM	20.1 µM	1.85 µM	4.66 µM
Nc1cc(NN=C(c2ccc(O)cc2)c2ccc(O)cc2)c([N+](=O)[O-])cc1[N+](=O)[O-]			1.52 µM	2.85 µM	1.57 µM	3.51 µM	1.65 µM	3.1 µM	3.04 µM	14 µM	3.31 µM	12.4 µM			1.88 µM	5.24 µM
Nc1n[nH]c2cc(F)c([C@@H]3Nc4ccc5[nH]ncc5c4[C@H]4C5CCC(C5)[C@@H]34)cc12 (some centres not stated)	9.96 µM	> 50 µM	0.128 µM	0.355 µM	0.177 µM	1.93 µM	0.158 µM	6.47 µM	0.149 µM	1.67 µM	0.238 µM	18.7 µM	0.173 µM	11.6 µM	0.132 µM	7.43 µM
C=C1C(=O)O[C@H]2[C@H]1CC/C(COC(=O)NCc1ccc(Cn3c(=O)sn(-c4ccc(OC)cc4)c3=O)cc1)=C\CC[C@@]1(C)O[C@@H]21	1.86 µM	4.53 µM	12 µM	24.8 µM	10.4 µM	25.5 µM	1.73 µM	3.12 µM	2.12 µM	5.48 µM	2.19 µM	5.27 µM	2.92 µM	14.2 µM	2.34 µM	6.83 µM
COc1ccc(/C=N/NC(=O)c2cccc3cc[nH]c23)cc1O	5.74 µM	> 100 µM	1.27 µM	> 80.7 µM	6.96 µM	97.5 µM	1.3 µM	> 100 µM	0.55 µM	> 22.7 µM	2.05 µM	> 100 µM	1.47 µM	> 30.3 µM	0.192 µM	> 49 µM
CCC(=C/[C@H](C)C/C=C/C(C)=C/[C@@H](C)C(=O)[C@@H](C)[C@H](O)[C@@H](C)CC)/C=C/[C@H]1OC(=O)C=C[C@@H]1C	< 0.01 µM	4.88 µM	< 0.01 µM	0.0342 µM	< 0.01 µM	< 0.01 µM	< 0.01 µM	1.23 µM	< 0.01 µM	1.77 µM	< 0.01 µM	3.04 µM	< 0.01 µM	1.62 µM	< 0.01 µM	0.327 µM
O=C1NC(=NC(CO)Cc2ccccc2)S/C1=C\c1ccc2ncccc2c1 (configuration not stated)	21.1 µM and 5.26 µM	> 25 µM	> 25 µM and 5.17 µM	> 25 µM and 12.3 µM	13.9 µM and 8.02 µM	> 25 µM	16.5 µM and 3.85 µM	> 25 µM	9.76 µM and 3.88 µM	> 25 µM and 14.3 µM	> 25 µM and 3.9 µM	> 25 µM	11.3 µM and 7.01 µM	> 25 µM	9.35 µM and 3.64 µM	> 25 µM

SMILES	GI50 (T-47D breast)	TGI (T-47D breast)	GI50 (SK-MEL-5 melanoma)	TGI (SK-MEL-5 melanoma)	GI50 (HCC-2998 colon)	TGI (HCC-2998 colon)	GI50 (LOX IMVI melanoma)	TGI (LOX IMVI melanoma)	GI50 (HL-60(TB) leukemia)	TGI (HL-60(TB) leukemia)	GI50 (PC-3 prostate)	TGI (PC-3 prostate)	GI50 (HS 578T breast)	TGI (HS 578T breast)	GI50 (CAKI-1 renal)	TGI (CAKI-1 renal)
CN1CC[C@@H](NC(=O)Nc2ccc(C#N)cc2)C[C@@H]1c1nc2ccccc2[nH]1	> 70.4 µM	> 100 µM	> 57.7 µM	> 100 µM	> 41.3 µM	> 56.4 µM	> 42.5 µM	> 59.5 µM	> 100 µM	> 100 µM	> 100 µM	> 100 µM	> 100 µM	> 100 µM	> 100 µM	> 100 µM
CCCCCCCCCCCCC(O)c1ccc(C#CCCCCCCCCCO)o1 (configuration not stated)	44.2 µM	> 100 µM	25.5 µM	47.2 µM	27.5 µM	48.2 µM	18.5 µM	33.5 µM			25.2 µM	59.6 µM	23.8 µM	47.3 µM	18.6 µM	33.1 µM
CN(C)c1cc(NN=C(c2ccc(O)cc2)c2ccc(O)cc2)c([N+](=O)[O-])cc1[N+](=O)[O-]	3.34 µM	17.2 µM	3.17 µM	14.4 µM	13.8 µM	27.8 µM	3.04 µM	15.2 µM	4.98 µM	55.8 µM	4.85 µM	32.2 µM			6.76 µM	20.2 µM
Oc1[nH]c2ccccc2c1N=Nc1nc(-c2ccc(Br)cc2)cs1				33.4 µM		> 100 µM		33.1 µM				> 100 µM		65 µM		39.9 µM
O=C1CN(c2cccc(Cl)c2)C(=O)CN1CCN1CC(=O)N(c2cccc(Cl)c2)CC1=O				> 100 µM		> 100 µM				> 100 µM		> 100 µM		> 100 µM		> 100 µM
Cc1cc(I)cc(CN(CCCN(C)C)C(C)C)c1O	15.2 µM	39.8 µM	16.4 µM	30.2 µM	16.5 µM	30.6 µM	15 µM	28.6 µM	18.2 µM	36 µM	14 µM	30.4 µM	18.1 µM	35.6 µM	16.5 µM	33.6 µM
CC1=C2C(=C[C@@](C)(CO)[C@@H]2O)C(=O)[C@](C)(O)C12CC2		0.0545 µM		0.0183 µM		0.0302 µM and 0.018 µM		0.0376 µM		0.0327 µM		0.0661 µM and 0.0121 µM		0.0428 µM	0.178 µM	
O=C(O)c1nc2nc(Cl)c(Cl)nc2[nH]1		> 100 µM		> 100 µM				> 100 µM		> 100 µM		> 100 µM		> 100 µM		> 100 µM
COc1cccc(C2SC(N)=Nc3c2c(C)nn3C(=O)c2ccccc2O)c1 (configuration not stated)		> 10 µM		> 10 µM		> 10 µM		> 10 µM				> 10 µM				> 10 µM
O=C(Oc1ccc(Cl)cc1)c1ccccc1Nc1ccnc(C(F)(F)F)c1			16.8 µM	36.2 µM	13.6 µM	27.6 µM			6.48 µM	> 100 µM	17 µM	63.2 µM	30.3 µM	93.9 µM	2.32 µM	4.67 µM
COc1cc(-c2ccc3cc(OC)c(OC)c(OC)c3c2)cc(OC)c1OC					> 100 µM	> 100 µM	> 100 µM	> 100 µM	> 100 µM	> 100 µM	5.81 µM	> 100 µM	15.4 µM	> 100 µM	> 100 µM	> 100 µM
CCOC(=S)SCC(=O)O		> 100 µM		> 100 µM				> 100 µM		5.74 µM		> 100 µM		> 100 µM		> 100 µM
Cc1ccc(-n2c3nc(=O)[nH]c(=O)c-3cc3cc([N+](=O)[O-])ccc32)cc1	14.3 µM	36 µM	16 µM	36.8 µM	14.6 µM	28.6 µM	4.77 µM	21.5 µM	3.98 µM	> 100 µM	12.2 µM	36.6 µM			10.4 µM	39.2 µM
CC(C)=CCC(O)C1=CC(=O)c2c(O)ccc(O)c2C1=O (configuration not stated)				1.88 µM		3.68 µM		2.63 µM		0.0659 µM		5.17 µM		6.2 µM		0.986 µM
N#Cc1c[nH]n2c(N=Nc3ccc(Cl)cc3)c(O)nc12	10.1 µM	56 µM	20.8 µM	43.7 µM			28.8 µM	> 100 µM	> 100 µM	> 100 µM	23.1 µM	> 100 µM	56.9 µM	> 100 µM	85.9 µM	> 100 µM
N#CC(C#N)=C/C=C(\Sc1nc2ccccc2s1)c1ccc(Cl)cc1		> 33 µM	10.4 µM	24.6 µM	13.8 µM	29 µM	2.59 µM	> 26.5 µM			6.67 µM	27.7 µM	6.68 µM	27.9 µM	1.93 µM	9.82 µM
O=C(/C(=C/c1ccc([N+](=O)[O-])cc1)SCc1ccccc1)c1ccc(Cl)cc1	2.41 µM	7.46 µM	3.41 µM	12.4 µM	1.97 µM	3.89 µM	1.69 µM	3.12 µM	3.21 µM	13.6 µM	2.35 µM	5.43 µM	2.4 µM	8.2 µM		
